Data as given in patent US5376679A, “Bicyclic or tricyclic biocidal compounds” (Shell Internationale Research Maatschappij B.V., priority 1988, dated 1994).

Experiments:
[1] = tested on: Plasmopara viticola; test: Direct protectant activity against vine downy mildew (Pvp); type: in vivo; set-up: Pvp: direct protectant activity against vine downy mildew: scale not given here; details: foliar spray, 1 kg/ha; activity grade 1 or 2, not defined
Excerpt: (a) Direct Protectant Activity Against Vine Downy Mildew (Plasmopara viticola; Pvp)
The test is a direct protectant one, using a foliar spray. The lower surfaces of leaves of whole vine plants (cv Cabernet Sauvignon) are sprayed with a solution of active material in 1:1 v/v water/acetone containing 0.04% w "Triton X-155" (trade mark) (octylphenol polyoxyethylene surfactant), at a dosage of 1 kilogram of active material per hectare using a track sprayer which delivers 620 liters/ha, and after a subsequent 24 hours under normal glasshouse conditions the lower surfaces of the leaves are inoculated by spraying with an aqueous solution containing 10^4 zoosporangia/ml. The inoculated plants are kept for 24 hours in a high humidity compartment, 5 days under normal glasshouse conditions and then returned for a further 24 hours to high humidity. Assessment is based on the percentage of leaf area covered by sporulation compared with that on control leaves.

[2] = tested on: Pseudocercosporella herpotrichoides; test: In vitro activity against wheat eyespot (Ph); type: cell-based; set-up: Ph: activity against wheat eyespot: scale not given here; details: for Ph: activity against wheat eyespot: in vitro, 100 ppm in agar, 11 days, activity grade 1 or 2, not defined
Description: (c) Activity Against Wheat Eyespot (Pseudocercosporella herpotrichoides; Ph)
The test is an in vitro one. Samples are prepared wherein 0.7 mls solution containing 2 mg active material dissolved in acetone is evenly dispersed in 20 ml molten half-strength potato dextrose agar (formed by dissolving 2 g potato extract, 10 g dextrose and 7.5 g agar in 1 liter of water and sterilising for 15 minutes and 121° C.) and the resulting 20 ml portions are allowed to set in 9 cm petri dishes. The concentration of active material in the resulting samples is 100 ppm. Upon setting, two plugs of 5 mm diameter taken from the advancing edge of a stock plate of a 3 to 4 week old culture of P.herpotrichoides on full strength potato dextrose agar, incubated at 20°-22° C. in darkness, are placed, equally spaced on the surface of each sample, mycelial side uppermost. The samples are incubated for 11 days at 20°-22° C. in darkness before assessment. Diametric growth is measured with the width of the plug subtracted and results compared with growth on a sample wherein 0.7 ml acetone containing no active material is dispersed in 20 ml half-strength potato agar.

[3] = tested on: Plasmopara viticola; test: Antisporulant activity against vine downy mildew (Pva); type: in vivo; details: foliar spray, 1 kg/ha; activity grade 1 or 2, not defined
Description: (j) Antisporulant Activity Against Vine Downy Mildew (Plasmopara viticola; Pva)
The test is a direct antisporulant one using a foliar spray. The lower surfaces of leaves of whole vine plants (cv Cabernet Sauvignon) are inoculated by spraying with an aqueous suspension containing 10^4 zoosporangia/ml 2 days prior to treatment with the test compound. The inoculated plants are kept for 24 hours in a high humidity compartment, and then 24 hours at glasshouse ambient temperature and humidity. When the plants are dry, infected leaves are sprayed on their lower surfaces with a solution of active material in 1:1 water/acetone containing 0.04% w/w "Triton X-155" (trade mark) (an octylphenol polyethoxylate surfactant). The spraying is carried out with a moving track sprayer with delivers 620 liter/ha, and the concentration of active material is calculated to give an application rate of 1 kg/ha. After spraying, the plants are returned to normal glasshouse conditions for 96 hours and are then transferred to the high humidity compartment for 24 hours to induce sporulation, prior to assessment. Assessment is visual and is based on the percentage of the leaf area covered by sporulation compared with that on control leaves.

[4] = tested on: Erysiphe graminis f.sp. hordei; test: Direct antisporulant activity against barley powdery mildew (Eg); type: in vivo; set-up: scale not given here; details: foliar spray, 1 kg/ha; activity grade 1 or 2, not defined
Excerpt: (f) Activity Against Barley Powdery Mildew (Erysiphe graminis f.sp. hordei; Eg) The test is a direct antisporulant one, using a foliar spray. Leaves of barley seedlings, cultivar Golden Promise, are inoculated by dusting with mildew conidia one day prior to treatment with the test compound. The inoculated plants are kept overnight at glasshouse ambient temperature and humidity prior to treatment. […] After drying, plants are returned to a compartment at ambient temperature and humidity for up to 7 days, followed by assessment. Assessment is based on the percentage of leaf area covered by sporulation compared with that on leaves of control plants.

[5] = tested on: Pyricularia oryzae; type: in vivo; details: foliar spray, 1 kg/ha; activity grade 1 or 2, not defined
[6] = tested on: Leptosphaeria nodorum; test: Direct antisporulant activity against wheat leafspot (Ln); type: in vivo; set-up: scale not given here; details: foliar spray, 1 kg/ha; activity grade 1 or 2, not defined
Description: (e) Activity Against Wheat Leafspot (Leptosphaeria nodorum; Ln) The test is a direct antisporulant one, using a foliar spray. Leaves of wheat plants ([…]), at the single leaf stage, are inoculated by spraying with an aqueous suspension containing 8×10^5 spores/mi. The inoculated plants are kept for 24 hours in a high humidity compartment prior to treatment. […] After drying, the plants are kept for 5 days under normal glasshouse conditions, followed by assessment. Assessment is based on the percentage of leaf area covered by sporulation compared with that on leaves of control plants.

[7] = tested on: Alternaria Solani; test: Direct protectant activity against tomato early blight (As); type: in vivo; set-up: As: activity against tomato early blight: scale not given here; details: foliar spray as under (a), 8 days; activity grade 1 or 2, not defined; also: dose 1000 g/ha
Description: (g) Activity Against Tomato Early Blight (Alternaria Solani; As). The test is a direct protectant one using a foliar spray. The upper surfaces of leaves of young tomato plants are sprayed with a solution of active material as described in (a) above. After 24 hours under normal glasshouse conditions, the upper surfaces of the leaves are inoculated by spraying with an aqueous suspension containing 10^4 spores/ml. The inoculated plants are kept for 72 hours in a high humidity compartment and are then removed to lower humidity (50-70% relative humidity). Assessment is made 8 days after inoculation.

[8] = tested on: fungi; details: prior art; cited from earlier work
[9] = tested on: bacteria; details: prior art; cited from earlier work
[10] = tested on: Fusarium culmorum; test: Activity against seedling wheat blight, soil drench (Fs); type: in vivo; set-up: scale not given here; details: 10 kg/ha, 21 days, activity grade 1 or 2, not defined
Description: (d) Activity Against Seedling Wheat Blight (Fusarium culmorum; Fs)
The test is an anti-sporulant one using a soil drench. Surface sterilised wheat seeds (var Waggoner) are inoculated by soaking in an aqueous suspension containing 7×10^5 spores/ml (60 mg seed per 80 ml suspension) at 22° C. for 6 hours. The seeds are then sown in pots (5 per pot) in sand at a depth of 1 cm. 1 day after inoculation and planting the active material is applied at a rate of 10 kg/ha by pouring on a soil drench (concentration 0.36 g/l active material in 12% v/v acetone/water) evenly over the sand. The pots are then transferred to a glasshouse, kept at 25° C. and watered sparingly. 21 days after inoculation the resulting seedlings are removed from the pots and their roots are gently washed. Visual assessment is made based on lesion development on stem base and upper roots in comparison with control seedlings.

[11] = tested on: Podosphaera leucotricha; test: Direct antisporulant activity against apple powdery mildew (Pl); type: in vivo; details: foliar spray, 1 kg/ha; activity grade 1 or 2, not defined
Excerpt: (h) Activity Against Apple Powdery Mildew (Podosphaera leucotricha; Pl) The test is a direct anti-sporulant one using a foliar spray. The upper surfaces of leaves of whole seedlings are inoculated by spraying with an aqueous suspension containing 10^5 conidia/ml 2 days prior to treatment with the test compound. The inoculated plants are immediately dried and kept at glasshouse ambient temperatures and humidity prior to treatment. […] After drying the plants are returned to a compartment at ambient temperature and humidity for up to 9 days, followed by assessment. Assessment is based on the percentage of the leaf area covered by sporulation compared with that on leaves of control plants.

[12] = tested on: Botrytis cinerea; test: Direct protectant activity against vine grey mould (Bcp); type: in vivo; details: foliar spray, 1 kg/ha; activity grade 1 or 2, not defined
Excerpt: (b) Direct Protectant Activity Against Vine Grey Mould (Botrytis cinerea; Bcp) The test is a direct protectant one using a foliar spray and is effected as described under (a), with the difference that the leaves are inoculated by spraying with an aqueous solution containing 10^5 conidia/ml.

[13] = tested on: Plasmopara viticola; test: Translaminar protectant test, vine downy mildew (Pvt); type: in vivo; details: secondary screening
Excerpt: The fungicidal activity of certain of the compounds was investigated further, in secondary screening.

Compound	Pvp: direct protectant activity against vine downy mildew [1]	Ph: activity against wheat eyespot [2]	Eg: activity against barley powdery mildew [4]	antifungal activity [8]	antibacterial activity [9]	Other: Pl, activity against apple powdery mildew [11]	further results
COC(=O)N=Nc1cc(Cl)c(C)c2c1OC(C)C2 (stereo not shown) [Example 35]	1	1	–	–	–	–	Other: Pva, antisporulant activity against vine downy mildew [3]: 1
COC(=O)N=[N+]([O-])c1ccc(C)c2c1OC(C)CC2 (stereo not shown) [Example 46]	2	2	2	–	–	–	Other: Po, activity against rice leaf blast [5]: 2; Ln: activity against wheat leafspot [6]: 2; As: activity against tomato early blight [7]: 2
COC(=O)N=Nc1cc(C)cc2c1OC(C)C2 (stereo not shown) [Example 33]	1	–	1	–	–	–	Other: Pva, antisporulant activity against vine downy mildew [3]: 1
N#CN=[N+]([O-])c1ccc(C(=O)O)cc1 [calvatic acid, 4 -(cyano-N,N,O-azoxy) benzoic acid]	–	–	–	antibacterial and antifungal activity	antibacterial and antifungal activity	–	–
COC(=O)c1ccc([N+]([O-])=NC#N)cc1 [calvatic acid methyl ester]	–	–	–	antibacterial and antifungal activity	antibacterial and antifungal activity	–	–
C[S+](C)[O-].N#CN=[N+]([O-])c1ccc(C(=O)O)cc1 [4-carboxyphenylazoxycyanide-dimethylsulphoxide]	–	–	–	Antibacterial and antifungal properties	Antibacterial and antifungal properties	–	–
N#CN=[N+]([O-])c1ccccc1C(=O)O [2-(cyano-N,N,O-azoxy)benzoic acid]	–	–	–	no relevant activity against the tested fungi	low activity against bacteria	–	–
COC(=O)N=Nc1cccc2c1OC(C)(C)C2 [Example 31]	–	1	1	–	–	1	Fs: activity against seedling wheat blight [10]: 1
COC(=O)N=[N+]([O-])c1cccc2c1OC(C)(C)C2 [Example 43]	–	2	2	–	–	1	activity against Ph ([2]; secondary screening): high activity; Bcp: direct protectant activity against vine grey mould [12]: 1
COCC1Cc2c(Cl)c(C)cc(N=NC(=O)OC)c2O1 (stereo not shown) [Example 36]	1	2	2	–	–	2	–
CCC1Cc2c(C)ccc(N=NC(=O)OC)c2O1 (stereo not shown) [Example 37]	1	1	–	–	–	1	activity against Pvt [13]: high activity; As: activity against tomato early blight [7]: 1
C=CCOC(=O)N=Nc1ccc(C)c2c1OC(C)CC2 (stereo not shown) [Example 40]	–	–	–	–	–	2	Ln: activity against wheat leafspot [6]: 1
